Source: ChEMBL document CHEMBL1201862, “PubChem BioAssay data set” (2004)
The source made the active and inactive calls.

How the values were obtained:
[1] = cytotoxicity in HPDE-C7 cells, cell-based, fluorescence, HTS (AID 430); format: functional; settings: Homo sapiens
[2] = cytotoxicity in KRAS-transformed pancreatic duct cells, primary screen, cell-based, fluorescence, HTS (AID 431); format: functional; settings: Homo sapiens;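 note: cell line used: HPDE-C7K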
HEK293 [3] = assay: cells; format: functional, cell-based; settings: Homo sapiens
HEK293 [4] = assay: NOD1 signaling inhibitors, primary screen, cell-based, luminescence, uHTS (AID 1578); format: functional; settings: Homo sapiens
[5] = target: T1, Short transient receptor potential channel 4 (Mus musculus, UniProt Q9QUQ5); assay: mouse TRPC4 channel activators, dose response, cell-based, HEK293 TRPC4/mu-opioid, Fluo-4 calcium (AID 434937); format: functional
T1 sequence (Q9QUQ5 whole entry): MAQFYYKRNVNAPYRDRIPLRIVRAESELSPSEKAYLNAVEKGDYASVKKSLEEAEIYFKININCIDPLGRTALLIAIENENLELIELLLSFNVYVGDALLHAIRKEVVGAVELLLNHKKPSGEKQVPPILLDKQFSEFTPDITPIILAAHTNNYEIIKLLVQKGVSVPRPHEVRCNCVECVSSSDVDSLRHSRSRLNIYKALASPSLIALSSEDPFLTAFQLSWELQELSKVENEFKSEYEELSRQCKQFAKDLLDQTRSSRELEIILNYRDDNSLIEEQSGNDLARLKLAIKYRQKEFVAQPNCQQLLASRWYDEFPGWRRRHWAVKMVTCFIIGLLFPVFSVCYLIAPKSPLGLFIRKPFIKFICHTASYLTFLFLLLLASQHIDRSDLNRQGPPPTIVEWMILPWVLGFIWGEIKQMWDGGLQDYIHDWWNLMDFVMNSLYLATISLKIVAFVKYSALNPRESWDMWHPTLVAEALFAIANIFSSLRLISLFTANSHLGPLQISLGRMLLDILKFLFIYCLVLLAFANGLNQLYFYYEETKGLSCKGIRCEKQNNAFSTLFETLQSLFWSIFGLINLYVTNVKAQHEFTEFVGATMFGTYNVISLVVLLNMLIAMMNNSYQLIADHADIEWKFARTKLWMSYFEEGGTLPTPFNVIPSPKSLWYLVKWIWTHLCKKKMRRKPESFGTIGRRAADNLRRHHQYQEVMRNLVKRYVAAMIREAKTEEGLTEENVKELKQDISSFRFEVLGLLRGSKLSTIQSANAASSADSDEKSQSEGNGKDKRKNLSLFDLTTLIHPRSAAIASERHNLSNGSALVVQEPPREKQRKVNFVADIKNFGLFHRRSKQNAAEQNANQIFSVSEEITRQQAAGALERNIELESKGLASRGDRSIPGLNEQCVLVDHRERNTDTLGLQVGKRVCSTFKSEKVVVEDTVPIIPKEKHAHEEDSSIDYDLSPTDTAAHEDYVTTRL

[6] = cytotoxicity in HEK-293T cells, dose response, cytotoxicity control for TCR NF-kB inhibitor project, luminescence, T-cell screen hits (AID 489026); format: functional, cell-based;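 note: cells exposed to compound about 14 hours before the viability readout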
[7] = inhibitors of intracellular T. cruzi replication, confirmation, NIH3T3 host cells, beta-gal luminescence (AID 2044); format: functional, cell-based;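 note: intracellular parasites grown in NIH/3T3 mouse fibroblasts as host cells; luminescent beta-galactosidase reporter signal from transgenic T. cruzi replicating inside host cells; inhibitors lower the luminescence signal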
[8] = cytotoxicity toward NIH3T3 fibroblasts, dose response, counter-screen, cell-based, ATP luminescence, mouse fibroblasts (AID 2010); format: functional;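 note: cells exposed to compound for about 90 hours before reading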
cells [9] = assay: cells
HEK293 [10] = assay: cells; format: functional, cell-based; settings: Homo sapiens; remark: listed apart in the source
[11] = target: T2, E3 ubiquitin-protein ligase XIAP (Homo sapiens, UniProt P98170); assay: Counter Screen using XIAP-Bir3 for Chemical Antagonists of Bir1/2 domains of IAP-family anti-apoptotic proteins. [Related pubchem assays (depositor defined):AID1018, AID1449, AID1514, AID1638, AID1749, AID1750, AID488957, AID488963]
T2 sequence (P98170 whole entry): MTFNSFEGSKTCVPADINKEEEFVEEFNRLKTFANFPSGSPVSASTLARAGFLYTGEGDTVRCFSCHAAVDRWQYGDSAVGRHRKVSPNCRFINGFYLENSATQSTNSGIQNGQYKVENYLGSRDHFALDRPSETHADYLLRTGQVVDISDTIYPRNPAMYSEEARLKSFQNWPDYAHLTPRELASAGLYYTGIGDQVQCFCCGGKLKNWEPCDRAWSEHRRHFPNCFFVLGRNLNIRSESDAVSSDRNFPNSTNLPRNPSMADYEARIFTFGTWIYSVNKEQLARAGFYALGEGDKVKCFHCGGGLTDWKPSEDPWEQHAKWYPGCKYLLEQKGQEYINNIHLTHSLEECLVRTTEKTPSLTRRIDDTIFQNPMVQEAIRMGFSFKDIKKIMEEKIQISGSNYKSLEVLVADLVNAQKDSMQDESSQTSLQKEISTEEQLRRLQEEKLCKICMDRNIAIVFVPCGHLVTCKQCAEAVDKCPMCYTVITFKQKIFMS

[12] = target: T2, E3 ubiquitin-protein ligase XIAP; assay: XIAP antagonists, biochemical, IAP family, fluorescence polarization (AID 1018); format: functional
H9c2 = assay: cells; format: functional, cell-based; settings: Rattus norvegicus, H9c2, Myocardium;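 note: confirmatory concentration-response retest of ultra-high-throughput screening hits for modulation of myocardial damage; cell death induced by hydrogen peroxide oxidative stress; compound pretreatment for 60 min then peroxide exposure for 2 h; potency is for protecting the cells against peroxide damage rather than for killing them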
Protein skinhead-1 = target: T3, Protein skinhead-1 (Caenorhabditis elegans, UniProt P34707); format: functional
T3 sequence (P34707 whole entry): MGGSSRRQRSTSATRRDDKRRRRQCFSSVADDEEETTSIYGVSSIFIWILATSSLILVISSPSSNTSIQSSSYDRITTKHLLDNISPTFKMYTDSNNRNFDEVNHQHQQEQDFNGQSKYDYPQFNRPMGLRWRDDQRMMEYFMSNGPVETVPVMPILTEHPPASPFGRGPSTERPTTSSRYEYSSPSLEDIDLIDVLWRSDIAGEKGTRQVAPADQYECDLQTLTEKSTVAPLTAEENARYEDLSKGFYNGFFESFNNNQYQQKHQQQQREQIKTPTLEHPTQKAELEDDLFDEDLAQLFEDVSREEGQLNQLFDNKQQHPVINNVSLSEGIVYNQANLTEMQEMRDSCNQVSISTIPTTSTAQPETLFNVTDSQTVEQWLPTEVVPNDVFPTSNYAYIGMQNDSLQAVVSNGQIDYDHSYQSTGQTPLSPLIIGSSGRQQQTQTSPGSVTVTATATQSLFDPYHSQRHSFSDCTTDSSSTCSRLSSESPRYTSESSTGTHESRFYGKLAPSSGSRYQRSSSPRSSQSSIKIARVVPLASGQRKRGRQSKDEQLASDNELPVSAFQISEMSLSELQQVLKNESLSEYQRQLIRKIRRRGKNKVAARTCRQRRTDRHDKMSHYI

[13] = target: Eukaryotic translation initiation factor 4E (Mus musculus, UniProt P63073); assay: eIF4E–eIF4G protein interaction inhibitors, dose response, biochemical, TR-FRET (AID 855); format: functional;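 note: potency for disrupting eIF4E binding to eIF4GI seen as loss of FRET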
Chain of Eukaryotic translation initiation factor 4E (P63073 whole entry): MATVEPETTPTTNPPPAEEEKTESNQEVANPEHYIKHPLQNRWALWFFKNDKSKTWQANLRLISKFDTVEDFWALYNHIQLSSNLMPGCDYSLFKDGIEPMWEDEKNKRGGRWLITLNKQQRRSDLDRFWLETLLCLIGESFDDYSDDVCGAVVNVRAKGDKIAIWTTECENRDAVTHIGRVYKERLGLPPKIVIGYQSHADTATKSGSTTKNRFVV

[14] = Luminescence Cell-Based Dose Response HTS to Identify Activators of Luciferase Translation or Activity in H4 […] Cells. [Related pubchem assays: 1829 (Project Summary), 1814 (Primary HTS)]; format: functional
H4 = assay: Luminescence Cell-Based Dose Response HTS to Identify Activators of 5'UTR Stem-Loop Driven Prion Protein mRNA Translation in H4 Neuroglioblastoma Cells. [Related pubchem assays: 1829 (Project Summary), 1814 (Primary HTS)]; format: functional; settings: Homo sapiens
[15] = Luminescence Cell-Based Dose Confirmation HTS to Identify Activators of 5'UTR Stem-Loop Driven Alpha-Synuclein mRNA Translation in H4 Neuroglioblastoma Cells. [Related pubchem assays: 1829 (Project Summary), 1814 (Primary HTS)]; format: functional
INS1 = assay: beta cell apoptosis inhibitors, cytokine rescue, dose response, luminescence, retest (AID 449756); format: functional, cell-based; settings: Rattus norvegicus;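 note: cell death triggered by IL-1 beta plus TNF-alpha plus IFN-gamma mixture; protective hits raise ATP signal compared with cytokine alone wells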
[16] = THP-1 cell cytotoxicity, dose response, cytotoxicity control for non-replicating M. tuberculosis project (AID 489025); format: functional
cells [17] = format: functional
[18] = Luminescence Cell-Based Dose Retest to Confirm Inhibitors of Cancer Stem Cells. [Related pubchem assays (depositor defined):AID2717, AID2721]; format: functional; settings: Homo sapiens
[19] = target: Glucose-6-phosphate 1-dehydrogenase (Homo sapiens, UniProt P11413); assay: human G6PD enzyme inhibitors, dose response, selectivity assay for P. falciparum G6PD inhibitor project, biochemical, fluorescence (AID 504792); format: functional
Chain of Glucose-6-phosphate 1-dehydrogenase (P11413 whole entry): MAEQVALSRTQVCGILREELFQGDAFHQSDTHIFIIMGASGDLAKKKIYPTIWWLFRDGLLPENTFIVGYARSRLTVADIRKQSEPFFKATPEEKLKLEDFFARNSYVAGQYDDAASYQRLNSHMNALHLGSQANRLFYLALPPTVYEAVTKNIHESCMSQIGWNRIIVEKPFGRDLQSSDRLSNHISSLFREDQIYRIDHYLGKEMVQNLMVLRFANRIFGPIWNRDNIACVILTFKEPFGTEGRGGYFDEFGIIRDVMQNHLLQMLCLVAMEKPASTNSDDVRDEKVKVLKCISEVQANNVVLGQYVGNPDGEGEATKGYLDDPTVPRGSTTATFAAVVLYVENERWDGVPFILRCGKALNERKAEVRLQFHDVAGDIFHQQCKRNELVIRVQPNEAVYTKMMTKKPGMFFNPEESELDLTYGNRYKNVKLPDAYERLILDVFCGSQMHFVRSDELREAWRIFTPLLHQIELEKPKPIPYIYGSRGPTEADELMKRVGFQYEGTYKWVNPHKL

Genome polyprotein = Genome polyprotein (dengue virus type 2, UniProt P29990); assay: Dengue-2 NS5 methyltransferase inhibitors, primary screen, biochemical, confirmation dose response (AID 588689); format: functional
Chain of Genome polyprotein (P29990 2492-3391 limits assumed): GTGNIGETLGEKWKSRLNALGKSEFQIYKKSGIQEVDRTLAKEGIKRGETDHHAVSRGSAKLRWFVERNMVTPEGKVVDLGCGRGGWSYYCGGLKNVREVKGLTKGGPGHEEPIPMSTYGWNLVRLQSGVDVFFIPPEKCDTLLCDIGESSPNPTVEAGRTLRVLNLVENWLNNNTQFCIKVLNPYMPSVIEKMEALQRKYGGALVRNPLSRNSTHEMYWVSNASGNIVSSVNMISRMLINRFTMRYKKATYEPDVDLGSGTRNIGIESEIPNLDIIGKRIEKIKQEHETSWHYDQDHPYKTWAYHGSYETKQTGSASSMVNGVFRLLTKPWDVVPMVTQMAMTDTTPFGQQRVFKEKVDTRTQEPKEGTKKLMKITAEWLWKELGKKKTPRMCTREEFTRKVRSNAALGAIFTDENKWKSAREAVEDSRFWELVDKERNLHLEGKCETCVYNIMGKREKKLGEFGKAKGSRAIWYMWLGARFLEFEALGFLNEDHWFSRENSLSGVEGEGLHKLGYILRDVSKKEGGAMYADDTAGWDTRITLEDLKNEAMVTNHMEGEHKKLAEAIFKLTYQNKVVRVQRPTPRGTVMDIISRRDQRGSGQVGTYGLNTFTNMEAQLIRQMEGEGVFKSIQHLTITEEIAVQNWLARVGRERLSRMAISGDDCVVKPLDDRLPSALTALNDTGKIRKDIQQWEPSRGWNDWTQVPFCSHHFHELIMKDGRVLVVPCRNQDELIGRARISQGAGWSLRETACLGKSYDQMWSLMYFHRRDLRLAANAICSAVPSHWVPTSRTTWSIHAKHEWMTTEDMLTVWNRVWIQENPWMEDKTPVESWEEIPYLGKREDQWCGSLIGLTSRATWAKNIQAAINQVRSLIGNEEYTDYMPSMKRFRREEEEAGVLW

[20] = target: Induced myeloid leukemia cell differentiation protein Mcl-1 (Homo sapiens, UniProt Q07820); format: functional
Chain of Induced myeloid leukemia cell differentiation protein Mcl-1 (Q07820 whole entry): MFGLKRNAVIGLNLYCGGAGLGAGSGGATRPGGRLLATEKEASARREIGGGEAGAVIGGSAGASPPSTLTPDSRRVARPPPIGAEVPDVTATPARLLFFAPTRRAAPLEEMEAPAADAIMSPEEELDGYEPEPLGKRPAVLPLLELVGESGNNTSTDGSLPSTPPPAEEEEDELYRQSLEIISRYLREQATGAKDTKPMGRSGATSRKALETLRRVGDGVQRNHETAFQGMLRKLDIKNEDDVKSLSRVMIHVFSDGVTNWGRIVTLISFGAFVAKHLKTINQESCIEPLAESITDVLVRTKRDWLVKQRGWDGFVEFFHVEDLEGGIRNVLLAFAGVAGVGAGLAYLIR

[21] = target: T4, Mannose-6-phosphate isomerase (Homo sapiens, UniProt P34949); assay: inhibitors of human PMI, primary screen, biochemical, fluorescence intensity, coupled assay (AID 1209)
T4 sequence (P34949 whole entry): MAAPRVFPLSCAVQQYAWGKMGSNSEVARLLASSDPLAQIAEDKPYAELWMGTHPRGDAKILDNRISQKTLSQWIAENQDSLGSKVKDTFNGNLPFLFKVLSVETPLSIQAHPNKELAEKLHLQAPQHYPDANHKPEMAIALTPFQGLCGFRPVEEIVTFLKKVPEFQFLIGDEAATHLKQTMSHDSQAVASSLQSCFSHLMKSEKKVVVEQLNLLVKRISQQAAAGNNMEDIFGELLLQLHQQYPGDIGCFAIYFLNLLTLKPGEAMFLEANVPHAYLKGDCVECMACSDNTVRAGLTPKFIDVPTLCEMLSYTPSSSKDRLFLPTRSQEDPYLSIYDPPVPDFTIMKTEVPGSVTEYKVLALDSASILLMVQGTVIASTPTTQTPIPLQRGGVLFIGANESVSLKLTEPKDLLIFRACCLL

[22] = target: T4, Mannose-6-phosphate isomerase; assay: human PMI inhibitors, high substrate, primary screen, biochemical, fluorescence intensity, high mannose 6-phosphate (AID 1220)
[23] = target: G-protein coupled receptor 55 (Homo sapiens, UniProt Q9Y2T6); assay: GPR55 antagonists blocking LPI-driven arrestin recruitment, primary screen, imaging, U2OS, beta-arrestin-GFP, LPI agonist (AID 2013); format: functional;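 note: antagonist potency measured as reduced agonist-driven arrestin aggregation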
Chain of G-protein coupled receptor 55 (Q9Y2T6 whole entry): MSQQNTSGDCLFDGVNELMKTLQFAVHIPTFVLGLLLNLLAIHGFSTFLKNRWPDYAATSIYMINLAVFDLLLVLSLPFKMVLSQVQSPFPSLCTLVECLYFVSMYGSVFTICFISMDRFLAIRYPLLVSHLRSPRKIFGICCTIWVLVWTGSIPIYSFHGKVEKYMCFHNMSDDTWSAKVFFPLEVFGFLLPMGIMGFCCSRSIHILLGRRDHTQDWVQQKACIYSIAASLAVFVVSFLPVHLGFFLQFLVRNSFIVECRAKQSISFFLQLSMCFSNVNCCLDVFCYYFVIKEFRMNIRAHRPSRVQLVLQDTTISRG

[24] = target: T5, Corticotropin-releasing factor receptor 2/Corticotropin-releasing factor-binding protein (Homo sapiens, UniProt P24387+Q13324); assay: activators of CRF receptor 2 with binding protein – uHTS hits, confirmation (AID 602473); format: functional; settings: read-out: EC50_Mean
T5 sequence (Q13324 whole entry): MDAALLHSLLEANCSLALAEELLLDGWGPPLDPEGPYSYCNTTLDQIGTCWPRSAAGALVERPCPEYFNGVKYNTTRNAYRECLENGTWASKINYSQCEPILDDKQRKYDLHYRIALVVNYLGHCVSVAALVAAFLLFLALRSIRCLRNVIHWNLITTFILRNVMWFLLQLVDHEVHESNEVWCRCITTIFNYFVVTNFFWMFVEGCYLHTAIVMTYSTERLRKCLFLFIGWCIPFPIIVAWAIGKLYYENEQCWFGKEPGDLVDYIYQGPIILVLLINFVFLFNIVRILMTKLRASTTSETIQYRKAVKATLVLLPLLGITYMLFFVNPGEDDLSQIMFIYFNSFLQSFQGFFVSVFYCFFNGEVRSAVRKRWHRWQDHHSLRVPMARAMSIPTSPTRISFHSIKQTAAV
T5 sequence (P24387 whole entry): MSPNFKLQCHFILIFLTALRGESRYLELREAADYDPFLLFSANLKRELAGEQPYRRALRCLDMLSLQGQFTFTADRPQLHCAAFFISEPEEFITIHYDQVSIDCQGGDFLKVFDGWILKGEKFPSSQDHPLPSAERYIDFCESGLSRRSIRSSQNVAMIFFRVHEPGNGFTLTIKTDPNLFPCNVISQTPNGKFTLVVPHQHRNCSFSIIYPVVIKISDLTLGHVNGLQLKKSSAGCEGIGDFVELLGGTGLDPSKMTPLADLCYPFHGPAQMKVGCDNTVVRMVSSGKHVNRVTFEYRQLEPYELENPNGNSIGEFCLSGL

Prothrombin = Prothrombin (Homo sapiens, UniProt P00734); assay: Thrombin 1536 HTS Dose Response Confirmation. [Related pubchem assays: 1046 (Thrombin 1536 HTS; hits were confirmed in this assay)]; format: functional

SMILES: COc1ccc(NC(=O)c2cc(-c3cc(C)ccc3O)[nH]n2)cc1Cl
- EC50 [1]: > 20 µM (not active)
- EC50 [2]: > 20 µM (not active)

SMILES: CCCC[n+]1c(C=C2C=Cc3ccccc3N2CC)sc2ccccc21
- IC50 (HEK293 [3]): 11.1 µM (active)
- EC50 (HEK293 [4]): 2.17 µM (active)
- EC50 [5]: 7.5 µM (active)
- IC50 [6]: > 80 µM (inactive)
- EC50 [7]: < 0.1 µM (active)
- EC50 [8]: > 60 µM (not active)
- EC50 (cells [9]): 0.058 µM (active)
- IC50 (HEK293 [10]): 1.96 µM (active)

SMILES: O=C(NCc1nnc(S)n1-c1ccc(F)cc1)c1ccco1
- IC50 [11]: > 100 µM (inactive)
- IC50 [12]: > 100 µM (not active)

SMILES: CCC(=O)N1CCN(c2ccc(NC(=O)c3cc4ccccc4o3)cc2Cl)CC1
- EC50 [1]: 11.5 µM (active)
- IC50 (H9c2): 15.9 µM (active)
- EC50 [2]: 10.9 µM (active)
- IC50 (Protein skinhead-1): > 100 µM (inactive)

SMILES: Cc1nnc(=O)[nH]c1NCc1ccco1
- IC50 [13]: > 64 µM (inactive)

SMILES: O=C1/C(=C/c2ccc(N3CCOCC3)o2)S/C(=N\c2ccccc2)N1CCc1c[nH]c2ccccc12
- EC50 [14]: > 120 µM (not active)
- EC50 (H4): > 120 µM (not active)
- IC50 [6]: > 80 µM (inactive)
- EC50 [15]: 13 µM (active)
- AC50 (INS1): 17.2 µM (active)

SMILES: CC(C)(C)c1ccccc1OCCOCCN1CCCCCC1
- CC50 [16]: 27.6 µM (active)
- IC50 (cells [17]): > 50 µM (active)
- EC50 [7]: 0.651 µM (active)
- EC50 [8]: > 60 µM (inconclusive)

SMILES: O=C1CC(=C(c2ccccc2)c2ccccc2)C(=O)N1CCCCN1CCN(c2cccc(Cl)c2)CC1
- IC50 [11]: > 100 µM (inactive)
- IC50 [12]: > 100 µM (not active)
- AC50 [18]: 0.624 µM (active)

SMILES: CCCCOc1ccc(Cc2nnc(S)n2N)cc1
- IC50 [19]: > 80 µM (inactive)

SMILES: Cc1ccc(O)c(NC2=C(Cl)C(=O)N(Cc3ccccc3)C2=O)c1
- IC50 [13]: 50 µM (inactive)
- IC50 (Genome polyprotein): > 100 µM (active)
- EC50 [7]: 4.37 µM (active)
- EC50 [8]: > 60 µM (inconclusive)
- IC50 [20]: 3.01 µM (not active)

SMILES: CC[n+]1c(C)sc2c(C)cc(C)cc21
- IC50 [11]: > 100 µM (inactive)
- IC50 [21]: 10.8 µM (active)
- IC50 [12]: > 100 µM (not active)
- IC50 [22]: > 50 µM (not active)

SMILES: Cc1[nH]c2c(Br)cccc2c1[C@H]1[C@@H](CC#N)C1(C)C
- IC50 [23]: 1.49 µM (active)

SMILES: Cc1ccc(-c2noc(CN3CCC(C(N)=O)CC3)n2)cc1
- EC50 [24]: > 53 µM (inactive)
- IC50 (Prothrombin): > 50 µM (not active)

SMILES: Fc1cccc(COc2ccccc2CNc2ccccc2)c1
- IC50 [11]: > 100 µM (inactive)
- IC50 [12]: > 100 µM (not active)

SMILES: CCOc1ccccc1NC(=O)C1CCN(S(=O)(=O)c2cccc3cccnc23)CC1
- IC50 [13]: > 64 µM (inactive)
